This test has as its system Mycosphaerella graminicola; Anamorph: Septoria tritici; Bayer Code SEPTTR. As to the kind of experiment: Leaf blotch of wheat, foliar fungicide treatment, one day protectant (1DP) or three day curative (3DC). Type of test: in vivo, Septoria tritici on wheat plants (variety Yuma). To be noted: Zymoseptoria tritici, rating of percent disease control.
The mark [1] stands for this setting: 24 h, one day protectant, read-out: SETTTR 1DP 25 ppm.
Where [2] appears, read: 24 h, one day protectant, read-out: SEPTTR 1DP 100 ppm.
Where [3] appears, read: 72 h, three day curative, read-out: SEPTTR 3DC 25 ppm.
Setting [4] is: 72 h, three day curative, read-out: SEPTTR 3DC 100 ppm.

The structures appear in SMILES notation. Read-outs that look alike come from different tables or passages of the source.

For the molecule `N#C/C(=N\Oc1ncc(F)c(N)n1)c1ccccc1` [Compound 640], the pest or weed control at 25 ppm was 76 to 100% under setting [1] and 76 to 100% under setting [3]. Moreover, the pest or weed control at 100 ppm is, setting by setting: under setting [2], 76 to 100%; under setting [4], 76 to 100%.
As to `Cc1ccccc1C(C)Oc1ncc(F)c(/N=C/N(C)C)n1` (stereo not drawn) [Compound 643], the pest or weed control at 25 ppm was 76 to 100% under setting [1] and 76 to 100% under setting [3]. For the same molecule, the pest or weed control at 100 ppm fell in the range of 76 to 100% under setting [2] and 76 to 100% under setting [4].
Regarding `Nc1nc(OCc2ccc(Cl)nc2)ncc1F` [Compound 644], the pest or weed control at 25 ppm reads like this: under setting [1], 76 to 100%; under setting [3], 76 to 100%. Further, the pest or weed control at 100 ppm fell in the range of 76 to 100% under setting [2] and 76 to 100% under setting [4].
For `COc1ccc(CCOc2ncc(F)c(N)n2)cc1` [Compound 645], the pest or weed control at 25 ppm runs as follows: under setting [1], 26 to 50%; under setting [3], 0 to 25%. Also, the pest or weed control at 100 ppm is 76 to 100% under setting [2] and 51 to 75% under setting [4].
In the case of `O=CNc1nc(OS(=O)(=O)c2ccccc2)ncc1F` [Compound 646], the pest or weed control at 25 ppm reads like this: under setting [1], 51 to 75%; under setting [3], 76 to 100%. Also, the pest or weed control at 100 ppm reads like this: under setting [2], 76 to 100%; under setting [4], 76 to 100%.
In the case of `C=CCOC(=O)Oc1ncc(F)c(/N=C/N(C)C)n1` [Compound 647], the pest or weed control at 25 ppm is 76 to 100% under setting [1] and 76 to 100% under setting [3]. Also, the pest or weed control at 100 ppm was 76 to 100% under setting [2] and 76 to 100% under setting [4].
On to `Nc1nc(OCc2ccc(OCc3ccc(F)cc3)cc2)ncc1F` [Compound 648], for which the pest or weed control at 25 ppm is, setting by setting: under setting [1], 76 to 100%; under setting [3], 76 to 100%. The pest or weed control at 100 ppm runs as follows: under setting [2], 76 to 100%; under setting [4], 76 to 100%.
With `CCCCOc1cc(COc2ncc(F)c(N)n2)ccc1OC` [Compound 650], the pest or weed control at 25 ppm lay within 76 to 100% under setting [1] and 76 to 100% under setting [3]. The pest or weed control at 100 ppm is, setting by setting: under setting [2], 76 to 100%; under setting [4], 76 to 100%.
For `COc1cccc(COc2ncc(F)c(NOC3CCCCO3)n2)c1` (stereo not drawn) [Compound 652], the pest or weed control at 25 ppm by setting is: under setting [1], 0 to 25%; under setting [3], 0 to 25%. Also, the pest or weed control at 100 ppm is, setting by setting: under setting [2], 51 to 75%; under setting [4], 76 to 100%.
As for `C=CCCOc1ncc(F)c(N)n1` [Compound 653], the pest or weed control at 25 ppm under setting [1] lay within 0 to 25% and the pest or weed control at 25 ppm under setting [3] fell in the range of 26 to 50%. For the same molecule, the pest or weed control at 100 ppm is, setting by setting: under setting [2], 0 to 25%; under setting [4], 76 to 100%.
`CCOCCOc1cccc(COc2ncc(F)c(NSc3ccccc3[N+](=O)[O-])n2)c1` [Compound 655]: the pest or weed control at 25 ppm by setting is: under setting [1], 51 to 75%; under setting [3], 51 to 75%. Also, the pest or weed control at 100 ppm reads like this: under setting [2], 76 to 100%; under setting [4], 26 to 50%.
For `CC[Si](CC)(CC)Nc1nc(OCc2ccccc2)ncc1F` [Compound 656], the pest or weed control at 25 ppm is 76 to 100% under setting [1] and 76 to 100% under setting [3]. In addition, the pest or weed control at 100 ppm is 76 to 100% under setting [2] and 76 to 100% under setting [4].
For `CCCCCCOc1ncc(F)c(N[Si](CC)(CC)CC)n1` [Compound 658], the pest or weed control at 25 ppm is 0 to 25% under setting [1] and 0 to 25% under setting [3]. In addition, the pest or weed control at 100 ppm was 51 to 75% under setting [2] and 51 to 75% under setting [4].
As for `COc1ccc(S(=O)(=O)Oc2ncc(F)c(N)n2)cc1` [Compound 660], the pest or weed control at 25 ppm by setting is: under setting [1], 76 to 100%; under setting [3], 26 to 50%. The pest or weed control at 100 ppm under setting [2] fell in the range of 76 to 100% and the pest or weed control at 100 ppm under setting [4] was in the range of 0 to 25%.
Consider `O=[N+]([O-])c1ccccc1SNc1nc(OCc2ccc(F)cc2F)ncc1F` [Compound 662], for which the pest or weed control at 25 ppm under setting [1] fell in the range of 0 to 25% and the pest or weed control at 25 ppm under setting [3] was 26 to 50%. In addition, the pest or weed control at 100 ppm was in the range of 76 to 100% under setting [2] and 26 to 50% under setting [4].
Turning to `COc1ccc(COc2ncc(F)c(/N=C/N(C)C)n2)cc1F` [Compound 663], the pest or weed control at 25 ppm reads like this: under setting [1], 76 to 100%; under setting [3], 76 to 100%. The pest or weed control at 100 ppm is 76 to 100% under setting [2] and 76 to 100% under setting [4].
For `CCc1ccccc1NNc1nc(OCc2ccc(F)cc2)ncc1F` [Compound 667], the pest or weed control at 25 ppm under setting [1] was 0 to 25% and the pest or weed control at 25 ppm under setting [3] was in the range of 0 to 25%. Also, the pest or weed control at 100 ppm under setting [2] was 76 to 100% and the pest or weed control at 100 ppm under setting [4] lay within 76 to 100%.
Regarding `COCCOC(=O)Nc1nc(OCc2cccc(C#N)c2)ncc1F` [Compound 668], the pest or weed control at 25 ppm lay in the range of 26 to 50% under setting [1] and 76 to 100% under setting [3]. Further, the pest or weed control at 100 ppm is, setting by setting: under setting [2], 76 to 100%; under setting [4], 76 to 100%.
In the case of `CN(C)/C=N/c1nc(OC(=O)Oc2ccccc2)ncc1F` [Compound 669], the pest or weed control at 25 ppm under setting [1] fell in the range of 76 to 100% and the pest or weed control at 25 ppm under setting [3] lay in the range of 76 to 100%. The pest or weed control at 100 ppm runs as follows: under setting [2], 76 to 100%; under setting [4], 76 to 100%.
For `Cc1ccc(COc2ncc(F)c(NC(=S)NCc3ccccc3F)n2)cc1` [Compound 670], the pest or weed control at 25 ppm runs as follows: under setting [1], 51 to 75%; under setting [3], 51 to 75%. Moreover, the pest or weed control at 100 ppm fell in the range of 76 to 100% under setting [2] and 76 to 100% under setting [4].
For `Cc1ccc(S(=O)(=O)Oc2ncc(F)c(N)n2)cc1` [Compound 671], the pest or weed control at 25 ppm reads like this: under setting [1], 76 to 100%; under setting [3], 76 to 100%. Further, the pest or weed control at 100 ppm runs as follows: under setting [2], 76 to 100%; under setting [4], 76 to 100%.
Take `O=C(CCl)Nc1nc(OCc2ccc(F)cc2)ncc1F` [Compound 672]: the pest or weed control at 25 ppm by setting is: under setting [1], 76 to 100%; under setting [3], 76 to 100%. The pest or weed control at 100 ppm under setting [2] lay in the range of 76 to 100% and the pest or weed control at 100 ppm under setting [4] lay within 76 to 100%.
As to `CSc1ccc(COc2ncc(F)c(N)n2)cc1` [Compound 673], the pest or weed control at 25 ppm under setting [1] fell in the range of 76 to 100% and the pest or weed control at 25 ppm under setting [3] was in the range of 76 to 100%. The pest or weed control at 100 ppm lay within 76 to 100% under setting [2] and 76 to 100% under setting [4].
Regarding `CC[Si](CC)(CC)Nc1nc(OC(C)c2ccc(F)cc2)ncc1F` (stereo not drawn) [Compound 674], the pest or weed control at 25 ppm runs as follows: under setting [1], 76 to 100%; under setting [3], 76 to 100%. The pest or weed control at 100 ppm by setting is: under setting [2], 76 to 100%; under setting [4], 76 to 100%.
For the molecule `CCOCNc1nc(OCc2ccc(C)cc2)ncc1F` [Compound 675], the pest or weed control at 25 ppm under setting [1] was in the range of 76 to 100% and the pest or weed control at 25 ppm under setting [3] lay within 76 to 100%. The pest or weed control at 100 ppm under setting [2] is 76 to 100% and the pest or weed control at 100 ppm under setting [4] is 76 to 100%.
With `COc1ccccc1COc1ncc(F)c(NC(=O)c2ccccc2)n1` [Compound 676], the pest or weed control at 25 ppm under setting [1] fell in the range of 26 to 50% and the pest or weed control at 25 ppm under setting [3] lay within 0 to 25%. Besides, the pest or weed control at 100 ppm was in the range of 76 to 100% under setting [2] and 0 to 25% under setting [4].
For `OCNc1nc(OCc2ccccc2)ncc1F` [Compound 677], the pest or weed control at 25 ppm under setting [1] was in the range of 76 to 100% and the pest or weed control at 25 ppm under setting [3] lay in the range of 76 to 100%. Moreover, the pest or weed control at 100 ppm under setting [2] is 76 to 100% and the pest or weed control at 100 ppm under setting [4] was 76 to 100%.
Take `CCCNC(=S)Nc1nc(OCc2ccccc2)ncc1F` [Compound 678]: the pest or weed control at 25 ppm is 0 to 25% under setting [1] and 26 to 50% under setting [3]. Besides, the pest or weed control at 100 ppm lay in the range of 76 to 100% under setting [2] and 76 to 100% under setting [4].
Take `Fc1cnc(OCc2ccccc2)nc1/N=C/N1CCc2ccccc2C1` [Compound 679]: the pest or weed control at 25 ppm lay within 76 to 100% under setting [1] and 76 to 100% under setting [3]. Moreover, the pest or weed control at 100 ppm under setting [2] lay within 76 to 100% and the pest or weed control at 100 ppm under setting [4] fell in the range of 76 to 100%.
On to `COc1ccc(OC)c(COc2ncc(F)c(NSc3ccccc3[N+](=O)[O-])n2)c1` [Compound 680], for which the pest or weed control at 25 ppm fell in the range of 0 to 25% under setting [1] and 26 to 50% under setting [3]. In addition, the pest or weed control at 100 ppm reads like this: under setting [2], 0 to 25%; under setting [4], 26 to 50%.
`Cc1ccc(COc2ncc(F)c(-n3ccnc3)n2)cc1` [Compound 681]: the pest or weed control at 25 ppm runs as follows: under setting [1], 76 to 100%; under setting [3], 76 to 100%. The pest or weed control at 100 ppm under setting [2] was 76 to 100% and the pest or weed control at 100 ppm under setting [4] lay within 76 to 100%.
For the molecule `Nc1nc(OCc2cc(Cl)nc(Cl)c2)ncc1F` [Compound 682], the pest or weed control at 25 ppm lay within 76 to 100% under setting [1] and 76 to 100% under setting [3]. Besides, the pest or weed control at 100 ppm reads like this: under setting [2], 76 to 100%; under setting [4], 76 to 100%.
As for `Fc1cccc(COc2ncc(F)c(/N=C/N3CCOCC3)n2)c1` [Compound 684], the pest or weed control at 25 ppm lay within 76 to 100% under setting [1] and 76 to 100% under setting [3]. In addition, the pest or weed control at 100 ppm reads like this: under setting [2], 76 to 100%; under setting [4], 76 to 100%.
In the case of `COc1cc(COc2ncc(F)c(NSc3ccccc3[N+](=O)[O-])n2)cc(OC)c1` [Compound 685], the pest or weed control at 25 ppm reads like this: under setting [1], 0 to 25%; under setting [3], 0 to 25%. The pest or weed control at 100 ppm runs as follows: under setting [2], 76 to 100%; under setting [4], 0 to 25%.
`Fc1ccc(COc2ncc(F)c(-n3ccnc3)n2)cc1` [Compound 688]: the pest or weed control at 25 ppm was 76 to 100% under setting [1] and 76 to 100% under setting [3]. The pest or weed control at 100 ppm by setting is: under setting [2], 76 to 100%; under setting [4], 76 to 100%.
In the case of `Nc1nc(OCc2ccc(Cl)cc2)ncc1F` [Compound 689], the pest or weed control at 25 ppm is, setting by setting: under setting [1], 76 to 100%; under setting [3], 76 to 100%. The pest or weed control at 100 ppm under setting [2] is 76 to 100% and the pest or weed control at 100 ppm under setting [4] lay within 76 to 100%.

These data come from US9204653B2, “5-fluoro pyrimidine derivatives” (DOW AGROSCIENCES LLC, priority 2008, dated 2015).
